# Reference: ChEMBL document CHEMBL1201862, “PubChem BioAssay data set” (2004)
# Activity calls are given as the source filed them.
# Tests used:
# [1] = molecular target: T1, RNA-binding protein pos-1 (Caenorhabditis elegans, UniProt G5EF15); experiment: inhibitors of POS-1/mex-3 RNA binding, dose response, biochemical, fluorescence polarization (AID 1964);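 note: purified POS-1 fused to maltose binding protein made in E. coli; potency of compounds blocking POS-1 binding to fluorescent RNA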
# T1 sequence (G5EF15 whole entry): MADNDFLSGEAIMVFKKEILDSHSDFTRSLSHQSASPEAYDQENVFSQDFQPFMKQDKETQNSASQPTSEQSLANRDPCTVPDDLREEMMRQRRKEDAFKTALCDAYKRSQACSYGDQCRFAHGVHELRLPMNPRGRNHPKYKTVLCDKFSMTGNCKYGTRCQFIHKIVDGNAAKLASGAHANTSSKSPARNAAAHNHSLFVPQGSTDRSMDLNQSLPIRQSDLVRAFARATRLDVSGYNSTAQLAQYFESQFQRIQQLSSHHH
# [2] = molecular target: T2, Zinc finger protein mex-5 (Caenorhabditis elegans, UniProt Q9XUB2); experiment: MEX-5/TCR-2 RNA interaction inhibitors, dose response, biochemical, C. elegans, fluorescence polarization (AID 1960)
# T2 sequence (Q9XUB2 whole entry): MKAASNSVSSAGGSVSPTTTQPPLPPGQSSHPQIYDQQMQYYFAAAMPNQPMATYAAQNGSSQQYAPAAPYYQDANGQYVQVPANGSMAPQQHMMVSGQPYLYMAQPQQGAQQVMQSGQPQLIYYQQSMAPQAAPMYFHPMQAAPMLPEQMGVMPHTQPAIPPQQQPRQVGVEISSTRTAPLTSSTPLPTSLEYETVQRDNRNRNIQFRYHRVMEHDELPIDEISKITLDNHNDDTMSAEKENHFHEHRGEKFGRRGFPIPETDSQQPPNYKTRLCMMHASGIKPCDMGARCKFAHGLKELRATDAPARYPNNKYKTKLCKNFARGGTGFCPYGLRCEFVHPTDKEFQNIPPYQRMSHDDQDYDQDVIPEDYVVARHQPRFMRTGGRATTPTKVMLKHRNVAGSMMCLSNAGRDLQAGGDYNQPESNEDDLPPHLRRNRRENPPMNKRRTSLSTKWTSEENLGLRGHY
# [3] = molecular target: T3, Bifunctional protein GlmU (Mycobacterium tuberculosis, UniProt P9WMN3); experiment: Inhibitors of Mycobacterial Glucosamine-1-phosphate acetyl transferase (GlmU). Secondary screen.; parameters: species or system Mycobacterium tuberculosis H37Rv
# T3 sequence (P9WMN3 whole entry): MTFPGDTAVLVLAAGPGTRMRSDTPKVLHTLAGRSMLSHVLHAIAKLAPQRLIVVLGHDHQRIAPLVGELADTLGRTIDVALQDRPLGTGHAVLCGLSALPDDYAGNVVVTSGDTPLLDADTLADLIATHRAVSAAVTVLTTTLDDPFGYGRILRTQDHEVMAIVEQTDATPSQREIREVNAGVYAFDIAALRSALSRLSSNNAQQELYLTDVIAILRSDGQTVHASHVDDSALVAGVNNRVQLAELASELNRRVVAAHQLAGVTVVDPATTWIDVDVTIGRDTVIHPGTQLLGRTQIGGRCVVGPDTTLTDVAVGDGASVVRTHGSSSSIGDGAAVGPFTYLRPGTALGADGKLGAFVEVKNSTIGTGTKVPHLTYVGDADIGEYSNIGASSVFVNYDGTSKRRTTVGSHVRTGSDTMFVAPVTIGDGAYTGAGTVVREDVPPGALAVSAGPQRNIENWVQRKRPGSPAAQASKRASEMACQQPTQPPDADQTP
# [4] = molecular target: DNA dC->dU-editing enzyme APOBEC-3A (Homo sapiens, UniProt P31941); experiment: Dose Response confirmation of small molecule APOBEC3A DNA Deaminase Inhibitors via a fluorescence-based single-stranded DNA deaminase assay. [Related pubchem assays (depositor defined):AID493011, AID493024]; format: functional
# [5] = molecular target: DNA dC->dU-editing enzyme APOBEC-3G (Homo sapiens, UniProt Q9HC16); format: functional;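 note: Dose-response counterscreen measuring inhibition of APOBEC3G DNA deaminase activity, run while confirming APOBEC3A inhibitors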
# [6] = molecular target: T4, 14-3-3 protein gamma (Homo sapiens, UniProt P61981); experiment: modulators of 14-3-3 gamma client binding – dose response (AID 711); format: functional
# T4 sequence (P61981 whole entry): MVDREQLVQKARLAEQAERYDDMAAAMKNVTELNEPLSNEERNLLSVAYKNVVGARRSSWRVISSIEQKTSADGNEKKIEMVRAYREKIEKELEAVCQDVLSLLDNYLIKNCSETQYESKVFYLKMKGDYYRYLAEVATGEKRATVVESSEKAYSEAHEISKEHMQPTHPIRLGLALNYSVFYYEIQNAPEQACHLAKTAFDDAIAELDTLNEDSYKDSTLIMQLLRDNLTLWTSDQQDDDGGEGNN
# [7] = HEp-2 cell cytotoxicity, dose response, cytotoxicity control for RSV inhibitor project, HTS (AID 2410); format: functional; conditions: human respiratory syncytial virus
# [8] = molecular target: T5, 5-hydroxytryptamine receptor 1A (Homo sapiens, UniProt P08908); format: functional
# T5 sequence (P08908 whole entry): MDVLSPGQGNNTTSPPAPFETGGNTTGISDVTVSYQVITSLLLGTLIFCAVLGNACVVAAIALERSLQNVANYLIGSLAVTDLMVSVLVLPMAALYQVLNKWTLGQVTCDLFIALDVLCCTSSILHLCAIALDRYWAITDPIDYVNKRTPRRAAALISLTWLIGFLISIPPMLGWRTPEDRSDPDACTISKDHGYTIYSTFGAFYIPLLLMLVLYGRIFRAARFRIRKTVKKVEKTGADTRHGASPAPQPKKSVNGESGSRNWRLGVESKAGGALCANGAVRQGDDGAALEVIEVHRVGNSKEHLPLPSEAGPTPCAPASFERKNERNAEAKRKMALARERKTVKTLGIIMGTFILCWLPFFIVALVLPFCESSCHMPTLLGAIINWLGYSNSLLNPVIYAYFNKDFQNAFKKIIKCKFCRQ
# [9] = molecular target: T6, High affinity choline transporter 1 (Homo sapiens, UniProt Q9GZV3); experiment: CHT inhibitors, dose response, cell-based, 5-point CRC, membrane potential dye (AID 504840); format: functional
# T6 sequence (Q9GZV3 whole entry): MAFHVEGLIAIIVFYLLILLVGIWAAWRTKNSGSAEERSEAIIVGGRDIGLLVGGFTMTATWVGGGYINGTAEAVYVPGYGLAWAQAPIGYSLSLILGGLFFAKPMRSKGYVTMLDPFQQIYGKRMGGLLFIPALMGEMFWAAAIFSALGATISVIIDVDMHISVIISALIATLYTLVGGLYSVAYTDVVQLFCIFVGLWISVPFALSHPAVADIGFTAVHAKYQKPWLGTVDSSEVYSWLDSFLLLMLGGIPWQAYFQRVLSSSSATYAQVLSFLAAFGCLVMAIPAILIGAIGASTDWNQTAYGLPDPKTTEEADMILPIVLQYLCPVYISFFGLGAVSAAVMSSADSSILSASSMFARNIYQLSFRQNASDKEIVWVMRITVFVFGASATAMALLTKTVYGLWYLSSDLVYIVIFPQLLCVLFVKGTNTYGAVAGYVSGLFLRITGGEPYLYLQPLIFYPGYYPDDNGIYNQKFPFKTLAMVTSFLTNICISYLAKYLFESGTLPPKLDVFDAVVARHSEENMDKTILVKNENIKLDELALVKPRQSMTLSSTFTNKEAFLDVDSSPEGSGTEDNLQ
# [10] = molecular target: Ephrin type-A receptor 4 (Mus musculus, UniProt Q03137); experiment: inhibitors of EphA4 binding to KYL peptide, primary screen, biochemical, colorimetric, mouse EphA4 (AID 689); format: functional
# [11] = molecular target: Voltage-gated inwardly rectifying potassium channel KCNH2 (Homo sapiens, UniProt Q12809); experiment: hERG protection from proarrhythmic block, potency, dose response, cell-based, thallium flux (AID 2121); format: ADME
# [12] = molecular target: T7, ORF 73 (Human herpesvirus 8, UniProt O40947); experiment: inhibitors of C-LANA binding to LBS DNA, dose response, biochemical, fluorescence polarization, cherry-picked samples (AID 504725); parameters: species or system Human gammaherpesvirus 8;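 note: fluorescence polarization of a labeled DNA duplex reporting LANA DNA binding; potency is for inhibitors that block LANA binding to the DNA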
# T7 sequence (O40947 whole entry): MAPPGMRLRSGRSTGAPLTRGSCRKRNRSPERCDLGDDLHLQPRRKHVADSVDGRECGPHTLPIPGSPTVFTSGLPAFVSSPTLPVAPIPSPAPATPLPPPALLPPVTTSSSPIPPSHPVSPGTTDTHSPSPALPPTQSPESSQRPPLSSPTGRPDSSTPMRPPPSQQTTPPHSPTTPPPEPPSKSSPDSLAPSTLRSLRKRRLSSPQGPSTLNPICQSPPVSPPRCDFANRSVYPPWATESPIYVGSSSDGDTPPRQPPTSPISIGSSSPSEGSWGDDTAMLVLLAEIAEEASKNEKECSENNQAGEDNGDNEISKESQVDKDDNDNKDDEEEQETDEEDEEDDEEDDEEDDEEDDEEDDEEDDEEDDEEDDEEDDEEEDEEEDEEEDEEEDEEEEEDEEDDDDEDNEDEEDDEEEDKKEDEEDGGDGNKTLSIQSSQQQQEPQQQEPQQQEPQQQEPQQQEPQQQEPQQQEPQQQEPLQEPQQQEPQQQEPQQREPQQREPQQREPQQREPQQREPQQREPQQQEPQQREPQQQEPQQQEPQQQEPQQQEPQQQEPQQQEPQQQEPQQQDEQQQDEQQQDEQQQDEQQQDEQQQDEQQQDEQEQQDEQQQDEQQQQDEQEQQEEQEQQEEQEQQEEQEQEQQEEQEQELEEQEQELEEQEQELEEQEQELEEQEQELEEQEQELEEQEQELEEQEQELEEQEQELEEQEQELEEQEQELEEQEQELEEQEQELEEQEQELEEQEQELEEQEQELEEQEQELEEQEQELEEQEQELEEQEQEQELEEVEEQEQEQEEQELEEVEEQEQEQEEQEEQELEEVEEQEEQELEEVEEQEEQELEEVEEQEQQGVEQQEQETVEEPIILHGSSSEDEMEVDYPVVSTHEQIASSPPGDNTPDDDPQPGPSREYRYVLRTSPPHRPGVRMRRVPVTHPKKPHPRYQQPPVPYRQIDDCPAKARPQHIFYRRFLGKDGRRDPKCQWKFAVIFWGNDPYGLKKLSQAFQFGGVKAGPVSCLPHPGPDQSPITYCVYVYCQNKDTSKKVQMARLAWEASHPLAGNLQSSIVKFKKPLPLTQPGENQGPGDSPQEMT
# [13] = molecular target: DNA (cytosine-5)-methyltransferase 1 (Homo sapiens, UniProt P26358); experiment: DNMT1 methyltransferase inhibitors, confirmation, biochemical, fluorescent molecular beacon (AID 602386); format: functional
# [14] = molecular target: 26S proteasome non-ATPase regulatory subunit 14 (Homo sapiens, UniProt O00487); experiment: inhibition of proteasome subunit RPN11 – biochemical, fluorescence polarization, uHTS hits, confirmation (AID 602368); format: functional
# [15] = molecular target: 72 kDa type IV collagenase (Homo sapiens, UniProt P08253); experiment: Dose Response validation of uHTS RPN11 inhibitor hits using a MMP-2 Fluorescence assay.; format: functional
# [16] = molecular target: Prothrombin (Bos taurus, UniProt P00735); experiment: thrombin inhibition, dose response, biochemical, fluorescence polarization, uHTS hits (AID 602369); format: functional
# [17] = inhibitors of intracellular T. cruzi replication, confirmation, NIH3T3 host cells, beta-gal luminescence (AID 2044); format: functional, cell-based;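 note: intracellular parasites grown in NIH/3T3 mouse fibroblasts as host cells; luminescent beta-galactosidase reporter signal from transgenic T. cruzi replicating inside host cells; inhibitors lower the luminescence signal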
# [18] = cytotoxicity toward NIH3T3 fibroblasts, dose response, counter-screen, cell-based, ATP luminescence, mouse fibroblasts (AID 2010); format: functional;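 note: cells exposed to compound for about 90 hours before reading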
# [19] = Luminescence Cell-Based Dose Retest to Confirm Inhibitors of Cancer Stem Cells. [Related pubchem assays (depositor defined):AID2717, AID2721]; format: functional; conditions: Homo sapiens
# [20] = molecular target: Kallikrein-7 (Homo sapiens, UniProt P49862); experiment: Fluorescence Intensity-based biochemical primary high throughput dose response assay to identify activators of kallikrein-7 (K7) zymogen.
# [21] = molecular target: G-protein coupled receptor 183 (Homo sapiens, UniProt P32249); experiment: SAR confirmation of small molecule antagonists of the EBI2 receptor via a luminescent beta-arrestin assa.; format: functional
# [22] = Dose-response inhibition of insulin secretion in a rat insulinoma line at 5 mM glucose (AID 1117331); format: functional, cell-based; conditions: INS-1E
# Sequence of G-protein coupled receptor 183 (P32249 whole entry): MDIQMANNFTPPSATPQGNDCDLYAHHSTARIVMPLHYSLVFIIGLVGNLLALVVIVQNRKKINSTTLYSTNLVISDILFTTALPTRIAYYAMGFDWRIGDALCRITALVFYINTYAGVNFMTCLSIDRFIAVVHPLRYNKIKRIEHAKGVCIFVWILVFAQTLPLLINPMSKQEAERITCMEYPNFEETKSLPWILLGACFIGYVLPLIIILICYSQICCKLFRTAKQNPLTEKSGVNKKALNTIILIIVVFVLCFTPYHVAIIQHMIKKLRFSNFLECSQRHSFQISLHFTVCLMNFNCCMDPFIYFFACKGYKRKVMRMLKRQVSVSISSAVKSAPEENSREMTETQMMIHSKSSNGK
# Sequence of Ephrin type-A receptor 4 (Q03137 whole entry): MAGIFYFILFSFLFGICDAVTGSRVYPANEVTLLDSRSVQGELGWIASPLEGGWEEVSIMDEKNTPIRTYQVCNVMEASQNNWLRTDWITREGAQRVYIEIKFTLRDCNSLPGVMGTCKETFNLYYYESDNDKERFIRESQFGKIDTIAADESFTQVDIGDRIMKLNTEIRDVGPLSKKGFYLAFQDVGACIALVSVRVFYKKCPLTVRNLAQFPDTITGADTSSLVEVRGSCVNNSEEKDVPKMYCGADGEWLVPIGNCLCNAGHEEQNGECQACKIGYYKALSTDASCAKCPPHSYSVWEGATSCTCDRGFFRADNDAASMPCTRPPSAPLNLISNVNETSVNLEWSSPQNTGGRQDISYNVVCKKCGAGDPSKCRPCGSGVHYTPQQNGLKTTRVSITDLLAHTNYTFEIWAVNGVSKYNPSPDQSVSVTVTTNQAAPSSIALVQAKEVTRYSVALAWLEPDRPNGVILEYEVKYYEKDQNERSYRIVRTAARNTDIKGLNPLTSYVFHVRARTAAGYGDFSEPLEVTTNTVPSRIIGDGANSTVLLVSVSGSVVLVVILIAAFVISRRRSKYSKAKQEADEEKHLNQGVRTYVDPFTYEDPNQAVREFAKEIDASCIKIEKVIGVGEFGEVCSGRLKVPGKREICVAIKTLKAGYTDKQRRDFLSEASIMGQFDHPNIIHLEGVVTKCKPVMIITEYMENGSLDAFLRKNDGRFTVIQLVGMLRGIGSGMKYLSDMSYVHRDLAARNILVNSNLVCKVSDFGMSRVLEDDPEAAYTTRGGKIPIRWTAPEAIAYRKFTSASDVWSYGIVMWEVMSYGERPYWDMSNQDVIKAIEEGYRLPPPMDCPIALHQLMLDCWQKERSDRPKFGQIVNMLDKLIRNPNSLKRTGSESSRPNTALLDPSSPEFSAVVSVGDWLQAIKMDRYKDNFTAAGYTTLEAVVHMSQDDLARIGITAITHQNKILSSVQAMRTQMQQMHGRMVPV
# Sequence of Kallikrein-7 (P49862 whole entry): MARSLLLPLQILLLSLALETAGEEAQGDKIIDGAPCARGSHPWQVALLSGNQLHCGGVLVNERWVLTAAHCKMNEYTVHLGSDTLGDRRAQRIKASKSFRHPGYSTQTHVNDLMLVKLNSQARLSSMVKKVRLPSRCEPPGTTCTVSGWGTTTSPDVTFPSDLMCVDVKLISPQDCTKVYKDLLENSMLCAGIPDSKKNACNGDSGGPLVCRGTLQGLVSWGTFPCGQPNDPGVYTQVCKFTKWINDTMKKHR
# Sequence of DNA dC->dU-editing enzyme APOBEC-3A (P31941 whole entry): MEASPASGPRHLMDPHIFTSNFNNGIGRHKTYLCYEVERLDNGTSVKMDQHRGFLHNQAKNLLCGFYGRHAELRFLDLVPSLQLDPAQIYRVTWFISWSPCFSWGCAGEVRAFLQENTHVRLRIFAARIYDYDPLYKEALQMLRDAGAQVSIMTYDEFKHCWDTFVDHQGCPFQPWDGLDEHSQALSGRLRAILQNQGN
# Sequence of 72 kDa type IV collagenase (P08253 whole entry): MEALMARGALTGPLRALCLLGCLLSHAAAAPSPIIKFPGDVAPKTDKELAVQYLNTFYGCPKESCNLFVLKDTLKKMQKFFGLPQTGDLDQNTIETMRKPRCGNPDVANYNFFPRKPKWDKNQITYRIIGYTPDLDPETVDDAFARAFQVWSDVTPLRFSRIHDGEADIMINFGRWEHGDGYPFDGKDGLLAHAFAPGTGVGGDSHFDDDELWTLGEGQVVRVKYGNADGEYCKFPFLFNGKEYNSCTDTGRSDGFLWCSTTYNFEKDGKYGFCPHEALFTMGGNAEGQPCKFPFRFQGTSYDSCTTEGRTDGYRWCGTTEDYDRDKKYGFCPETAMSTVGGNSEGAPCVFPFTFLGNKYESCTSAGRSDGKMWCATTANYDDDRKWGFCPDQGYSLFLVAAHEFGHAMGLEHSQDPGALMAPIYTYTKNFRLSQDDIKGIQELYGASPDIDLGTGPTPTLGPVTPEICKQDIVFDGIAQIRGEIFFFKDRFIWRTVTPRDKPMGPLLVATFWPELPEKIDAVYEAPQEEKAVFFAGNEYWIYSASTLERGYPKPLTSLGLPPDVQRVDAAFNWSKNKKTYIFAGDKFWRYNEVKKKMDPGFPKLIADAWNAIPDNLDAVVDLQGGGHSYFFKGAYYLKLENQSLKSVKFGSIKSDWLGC
# Sequence of 26S proteasome non-ATPase regulatory subunit 14 (O00487 whole entry): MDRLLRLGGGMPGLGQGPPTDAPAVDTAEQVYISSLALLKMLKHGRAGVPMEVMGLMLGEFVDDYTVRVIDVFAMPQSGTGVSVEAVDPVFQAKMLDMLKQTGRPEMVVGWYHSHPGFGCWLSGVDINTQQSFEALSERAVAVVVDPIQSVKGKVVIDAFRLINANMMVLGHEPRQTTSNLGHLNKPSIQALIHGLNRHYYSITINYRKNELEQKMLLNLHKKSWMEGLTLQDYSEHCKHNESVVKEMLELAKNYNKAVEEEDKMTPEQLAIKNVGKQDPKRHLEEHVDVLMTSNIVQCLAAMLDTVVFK
# Sequence of Voltage-gated inwardly rectifying potassium channel KCNH2 (Q12809 whole entry): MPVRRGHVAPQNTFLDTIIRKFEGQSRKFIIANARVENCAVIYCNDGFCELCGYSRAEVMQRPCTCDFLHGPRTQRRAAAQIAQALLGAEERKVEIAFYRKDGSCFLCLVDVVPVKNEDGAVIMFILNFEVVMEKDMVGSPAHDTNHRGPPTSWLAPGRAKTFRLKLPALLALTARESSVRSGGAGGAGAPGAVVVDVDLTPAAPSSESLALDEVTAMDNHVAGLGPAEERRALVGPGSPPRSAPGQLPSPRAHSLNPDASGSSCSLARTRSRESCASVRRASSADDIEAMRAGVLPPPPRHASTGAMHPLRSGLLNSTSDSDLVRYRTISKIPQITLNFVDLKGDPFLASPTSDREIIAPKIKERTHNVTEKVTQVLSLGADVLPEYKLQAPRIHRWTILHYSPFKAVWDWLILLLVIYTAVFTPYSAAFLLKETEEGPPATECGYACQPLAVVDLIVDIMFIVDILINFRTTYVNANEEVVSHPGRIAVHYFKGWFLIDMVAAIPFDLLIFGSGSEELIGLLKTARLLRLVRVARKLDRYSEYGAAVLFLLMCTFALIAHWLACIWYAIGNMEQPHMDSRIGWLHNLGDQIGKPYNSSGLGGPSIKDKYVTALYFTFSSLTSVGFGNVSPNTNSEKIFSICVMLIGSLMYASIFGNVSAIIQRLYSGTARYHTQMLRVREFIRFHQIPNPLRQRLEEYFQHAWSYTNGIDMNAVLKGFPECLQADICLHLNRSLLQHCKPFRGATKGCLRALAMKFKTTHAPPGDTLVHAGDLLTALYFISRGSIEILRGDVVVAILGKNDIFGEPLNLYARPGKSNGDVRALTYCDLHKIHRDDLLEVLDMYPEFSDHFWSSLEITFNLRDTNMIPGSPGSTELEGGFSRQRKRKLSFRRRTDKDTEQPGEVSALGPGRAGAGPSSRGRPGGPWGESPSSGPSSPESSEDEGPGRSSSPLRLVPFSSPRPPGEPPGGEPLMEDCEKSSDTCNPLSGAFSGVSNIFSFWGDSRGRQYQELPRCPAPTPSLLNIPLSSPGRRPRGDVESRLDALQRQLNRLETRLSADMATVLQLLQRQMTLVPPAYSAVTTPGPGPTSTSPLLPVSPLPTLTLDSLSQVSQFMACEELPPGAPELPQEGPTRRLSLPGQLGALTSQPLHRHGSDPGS
# Sequence of DNA dC->dU-editing enzyme APOBEC-3G (Q9HC16 whole entry): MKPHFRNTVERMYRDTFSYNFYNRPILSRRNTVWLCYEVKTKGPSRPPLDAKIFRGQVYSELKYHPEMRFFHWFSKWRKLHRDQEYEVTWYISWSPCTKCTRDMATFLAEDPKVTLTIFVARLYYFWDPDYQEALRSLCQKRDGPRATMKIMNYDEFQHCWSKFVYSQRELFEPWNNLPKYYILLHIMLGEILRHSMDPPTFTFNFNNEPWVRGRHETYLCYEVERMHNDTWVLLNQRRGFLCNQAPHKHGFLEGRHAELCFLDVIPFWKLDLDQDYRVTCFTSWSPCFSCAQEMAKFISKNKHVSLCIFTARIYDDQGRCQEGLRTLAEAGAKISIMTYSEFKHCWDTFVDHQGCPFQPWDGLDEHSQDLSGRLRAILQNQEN
compound,measurement,setting,value
CSc1nnc(SCc2nc3sc(C(=O)O)c(C)c3c(=O)[nH]2)s1,EC50,[1],25.4 µM (active)
same,EC50,[2],30.6 µM (active)
same,IC50,[3],76.2 µM (active)
same,IC50,[4],14 µM (active)
same,IC50,[5],24.6 µM (active)
COc1ccc(-n2ncc3c(N4CCCc5ccccc54)ncnc32)cc1,IC50,[6],> 50 µM (not active)
CCOc1ccc(N2C(=O)NC(=O)/C(=C\NCCN3CCNCC3)C2=O)cc1,IC50,[6],> 50 µM (not active)
Cc1cccc(N2CCN(C(=O)Cc3c(C(=O)O)[nH]c4ccc(Cl)cc34)CC2)c1C,CC50,[7],20.4 µM (active)
same,EC50,[8],> 50 µM (not active)
same,IC50,[9],10.8 µM (active)
Cc1nn(-c2ccccc2)c2c1C(c1cccnc1)N1C=C(S(=O)(=O)N3CCCCC3)C=CC1=N2 (centres undefined),IC50,[10],> 100 µM (not active)
O=C(Nc1cccc(-c2cn3ccsc3n2)c1)c1ccccc1,EC50,[8],> 50 µM (not active)
CCOC(=O)c1sc(NN=C(C(=O)OC)C(=O)OC)c(C(=O)OCC)c1C,EC50,[11],210 nM (active)
COC(=O)c1ccccc1NC(=O)CCS(=O)(=O)c1ccc(Br)cc1,IC50,[3],28.6 µM (active)
same,AC50,[12],31.5 µM (active)
same,IC50,[13],3.69 µM (active)
same,IC50,[14],14 µM (active)
same,IC50,[15],22.5 µM (active)
same,IC50,[16],> 100 µM (inactive)
Cc1cc(Nc2cccc(F)c2)nc(-c2ccccc2O)n1,EC50,[17],4.15 µM (active)
same,EC50,[18],> 60 µM (not active)
same,AC50,[19],3.68 µM (active)
same,EC50,[20],> 69.5 µM (inactive)
Cc1ccc(NC(=O)C2=CC(c3cccs3)=NS(=O)(=O)N2C)cc1,EC50,[20],33.9 µM (inactive)
C/C(=C\C(=O)c1ccccc1)NNc1nc2ccccc2s1,IC50,[10],> 100 µM (not active)
CC(C)(C)c1ccc(S(=O)(=O)N2CCN(C(=O)/C=C/c3ccc(F)cc3)CC2)cc1,IC50,[21],12.4 nM (active)
O=C(/C=C/c1ccc(Br)cc1)N1CCN(C(=O)c2ccc(Cl)cc2)CC1,IC50,[21],0.409 nM (active)
O=C(/C=C/c1ccc(F)cc1)N1CCN(S(=O)(=O)c2cc(Cl)ccc2Cl)CC1,IC50,[21],21.9 nM (active)
CC(CCc1ccccc1)NC(C)C(O)c1ccc(O)cc1 (centres undefined) [NYLIDRIN],IC50,[22],14.5 µM (inactive)
